Read-outs that look alike come from different tables or passages of the source.
What was measured:
[1] = remark: listed apart in the source
Excerpt: Adult female Sprague-Dawley rats were randomly assigned in treatment groups of 3 rats in each group to diets comprising 5, 10, 15, or 20% glycine in their feed or a non-supplemented diet. Weight measurements were obtained on the indicated day of the study. The analyst undertaking the weight measurement was blinded relative to the diet of the animal for which the observation was being recorded. The bars represent±1 standard error of the weights of the rats in each group on the indicated observation day. […] Data was analyzed using a One-Way Analysis of Variance and subjected to post-hoc analysis using Dunnett's Multiple Comparison Test.

abdominal fat [2] = conditions: adult female Sprague-Dawley rats, glycine from 5% to 20% in diet vs non-supplemented, day 30
Excerpt: Adult female Sprague-Dawley rats were randomly assigned in treatment groups of 3 rats in each group to diets comprising 5, 10, 15, or 20% glycine in their feed or a non-supplemented diet. The rats in each treatment group were euthanized on day 30 of the study. Measurements of the abdominal fat content of each rat were obtained at necropsy. The analyst undertaking the measurement was blinded relative to the treatment group of the animal for which the observation was being recorded. Data was analyzed using a One-Way Analysis of Variance and subjected to post-hoc analysis using Dunnett's Multiple Comparison Test.

BAD = test system: BAD
Experimental: Adult male Sprague-Dawley rats were randomly assigned in treatment groups of 3 rats in each group to diets comprising 5% or 20% of glycine in their feed or a non-supplemented diet. On day 20 of the study the animals were euthanized and the adipose tissue obtained at necropsy. Total proteins were extracted from the adipose tissue.
Assay of the tissue extracts for the ability to phosphorylate BAD at serine position 136 was performed as follows: One mg of tissue extract was added to BAD agarose (Upstate, Waltham, Mass.). The reaction volume was adjusted to 1 ml using RIPA buffer (with anti-phosphatases and anti-proteases) (Tris-HCl [pH 7.4] 50 mM; NP-40 1%; Na deoxycholate 0.25%; NaCl 150 mM; EDTA 1 mM; PMSF 1 mM; Protease Arrest 100 ul; sodium orthovanadate 1 mM; sodium fluoride 1 mM) and incubated for 0.5 hr at 30° C. The agarose beads were collected by centrifugation (5 sec at 12,000× g). The supernatant was removed and the beads washed 3× with ice cold TBS. The BAD-agarose was resuspended in 40 μl of sample buffer, boiled for 5 min, and centrifuged (5 min at 12,000× g). Seven microliters of sample were electrophoresed on a 15% gel (Tris-Glycine). The protein was transferred by western blotting to a nitrocellulose membrane and blocked with 5% NFM in TTBS at 4° C. with shaking. The membrane was washed with 2% NFM in TTBS. Each lane was blotted with rabbit anti-phospho-BAD 136 antibody at (1:1000 in 2% NFM/TTBS) for 2 hrs at room temperature. The blots were washed three times for 5 min with TTBS. The blots were incubated with goat anti-Rabbit-HRP (1:5000 in 2% NFM/TTBS). The blots were washed 3× for 5 min with TTBS and 2× 5 min with TBS. Visualization of phosphorylated BAD was accomplished with a chemiluminesence substrate (Pierce Super-Signal Substrate™).

[3] = test system: 3T3-L1 cells differentiated into adipocytes
[4] = for size and weight after switch to diet without glycine supplementation: 4 weeks glycine diet then 10% to 0%, within one month; for growth (length) / weight gain: glycine added to diet
Excerpt: Animals treated for 4 weeks with diet supplemented with glycine were switched to diet containing no glycine supplementation (FIGS. 18 and 19, 10% to 0%). […] Animals treated for 4 weeks with diet supplemented with glycine were switched to diet containing no glycine supplementation (FIGS. 20 and 21, 10% to 0%).

[5] = Glycine added to the diet of laboratory animals (general statement)
abdominal fat [6] = test system: abdominal fat
Experimental: Five rats from each treatment group were chosen at random and euthanized on day 30 of the study. Measurements of the abdominal fat content of each rat were obtained at necropsy (FIG. 2). The analyst undertaking the measurement was blinded relative to the treatment group of the animal for which the observation was being recorded. Data was analyzed using a One-Way Analysis of Variance and subjected to post-hoc analysis using Dunnett's Multiple Comparison Test.
(§1) The identical experiment was performed with female adult (180 day old) Fisher rats.

[7] = adult male ZDF rats, 20% glycine diet vs non-supplemented, day 15 through day 36
Excerpt: (§2) Adult male Zucker diabetic fatty (ZDF) rats were randomly assigned in treatment groups of 3 rats in each group to diets comprising 20% glycine in their feed or a non-supplemented diet. ZDF rats are obese, hyperlipidemic, and insulin resistant. Weight measurements were obtained on the indicated day of the study. The analyst undertaking the weight measurement was blinded relative to the diet of the animal for which the observation was being recorded. The bars represent±1 standard error of the weights of the rats in each group on the indicated observation day. Data was analyzed using a One-Way Analysis of Variance and subjected to post-hoc analysis using Dunnett's Multiple Comparison Test. […] Measurements of the abdominal fat content of each rat were obtained at necropsy (FIG. 7).

abdominal fat [8] = conditions: ZDF rats, 20% glycine diet, at necropsy
Excerpt: as §2

[9] = remark: listed apart in the source
Excerpt: Rats were randomly divided, caged separately, and fed water ad libitum and diet TD 80406 diet (Harlan Teklad, Madison, Wis.). The TD 80406 diet has about 1-2% glycine present in the lactalbumin component and is considered a non-supplemented diet.
Adult (180 day old) male Fisher rats were randomly assigned in treatment groups of 10 rats in each group to diets comprising 5% or 20% glycine in their feed or a non-supplemented diet. Animal and food weight measurements were obtained on the indicated day of the study. The analyst undertaking the weight measurement was blinded relative to the diet of the animal for which the observation was being recorded. The bars represent±1 standard error of the weights of the rats in each group on the indicated observation day.
as §1

[10] = rats on a high glycine diet
Excerpt: Blood samples were withdrawn from the tail vein of the rats under study and sent to Charles River Laboratories for Mutli-Analyte Profile testing. […] Am J Physiol Regul Integr Comp Physiol, 2004. […] Nahrung, 1980. 24(7):663-71; Sugiyama et al., Dietary sulfur-containing amino acids and glycine as determinant factors in plasma cholesterol regulation in growing rats. J Nutr Sci Vitaminol (Tokyo), 1985. […] Pol J Pharmacol, 2003. […] Nutrition Research, 1999. 19(12):1777-1789; Yoshida et al., Effects of addition of arginine, cystine, and glycine to the bovine milk-simulated amino acid mixture on the level of plasma and liver cholesterol in rats. J Nutr Sci Vitaminol (Tokyo), 1988. 34(6):567-76; Olson et al., Effect of amino acid diets upon serum lipids in man. Am J Clin Nutr, 1970. […] Vopr Med Khim, 1984. 30(2):78-80; Yagasaki et al., Effects of dietary methionine, cystine, and glycine on endogenous hypercholesterolemia in hepatoma-bearing rats. J Nutr Sci Vitaminol (Tokyo), 1986. […] J Biol Chem, 1990. 265(10):5910-6.

[11] = adult female Fisher rats compared with males

In the case of `NCC(=O)O` [glycine], the “gross findings at necropsy” value (15% glycine and 85% TD80406 diet for 6 weeks, rats 24 days old at start) is reported as “No gross lesions or treatment related abnormalities other than weight”, the “blood chemistry and complete blood counts” value (15% glycine diet for 6 weeks vs control diet) is reported as “No differences” and the “histopathological examination of tissues” value (one animal fed high glycine diet, brain, lung, liver, adrenal gland, kidneys, urinary bladder, heart, stomach, intestines) is reported as “no microscopic changes from normal histology”. The weight ([1]; adult female Sprague-Dawley rats, 20% glycine diet vs non-supplemented, day 15 through day 36) was “statistically significant decrease in weight”, the weight loss ([1]; female Sprague-Dawley rats, high glycine in the diet) was “rapid significant weight loss” and the abdominal fat content (abdominal fat [2]) was “statistically significant less abdominal fat”. The “ability of WAT protein extracts to phosphorylate BAD at serine position 136” value (BAD; WAT of treated animals, preliminary data) was “did not have the ability to phosphorylate BAD”, the “phosphorylation state of BAD at tyrosine 136” value (BAD; liver tissue extracts) was “no such decrease” and the “phosphorylation state of BAD at tyrosine 136” value (BAD; muscle extracts) was “no such decrease”. The “loss of BAT tissue” value (BAD; preliminary experiments, glycine-fed rats) was “no significant loss”, the “phosphorylation of BAD at tyrosine 136” value (BAD; white adipose tissue (WAT), adult male rats, 5% or 20% glycine diet, day 20) was “dose dependent decrease” and the “apoptosis by TUNEL staining” value ([3]; glycine in media equivalent to 2× the normal circulating levels in the blood, preliminary experiments) was “positive TUNEL staining”. For the same compound, the TUNEL staining ([3]; high concentrations of glycine in the medium vs non-treated cells) was “increased staining for TUNEL”, the “size and weight after switch to diet without glycine supplementation” value ([4]; immature female rats) was “same size and weight as the control animals” and the “growth (length)” value ([4]; immature female rats) was “dose-dependent reduction”. For the same compound, the weight gain ([4]; immature female rats) was “dose-dependent reduction”, the “size and weight after switch to diet without glycine supplementation” value ([4]; immature male rats) was “same size and weight as the control animals” and the “growth (length)” value ([4]; immature male rats) was “dose-dependent reduction”. For the same compound, the weight gain ([4]; immature male rats) was “dose-dependent reduction”, the weight loss ([5]; dietary glycine at high levels (20% by weight)) was “significant weight loss” and the weight ([5]; glycine added to the diet of laboratory animals, rodent strains and dogs) was “dose-dependent loss in weight”. For the same compound, the side-effects ([5]; optimal and super-optimal doses, prolonged administration) was “no deleterious side-effects”, the “reduction in abdominal fat” value (abdominal fat [6]; [11]) was “greater than that observed for the male” and the abdominal fat content (abdominal fat [6]; adult male Fisher rats, 20% glycine diet vs 5% glycine or non-supplemented diet, day 30) was “statistically significant less abdominal fat”. For the same compound, the weight [7] was “statistically significant decrease in weight”, the abdominal fat content (abdominal fat [8]) was “statistically significant (p≤0.05) less abdominal fat” and the “effect on weight loss and abdominal fat content” value [9, 11] was “somewhat more pronounced in the females than in the males”. The weight ([9]; adult male Fisher rats, 20% glycine diet vs 5% glycine or non-supplemented diet, day 14-30) was “statistically lighter”, the “weight after return to non-supplemented diet” value ([9]; adult male Fisher rats, 20% glycine group returned to non-supplemented diet on day 30, vs control after day 32) was “no statistical difference” and the “weight at end of Recovery Phase” value ([9]; treated adult female Fisher rats vs control) was “did not rebound to the level of the control animals”. For the same compound, the adiponectin levels [10] was “increase in a manner trending towards significance”, the leptin levels [10] was “Decrease in leptin levels, trending toward significance” and the “serum HDL level” value [10] was “statistically significant (p≤0.05) reduction”. The serum cholesterol level [10] was “statistically significant (p≤0.05) reduction” and the serum triglyceride level [10] was “statistically significant (p≤0.05) reduction”.

From US10729157B2, “Methods for regulating weight and size of animals” (Oragenics, Inc., priority 2004, dated 2020)
